The values below come from ChEMBL document CHEMBL1275460, “Molecular characterization and epidemiology of extended-spectrum-beta-lactamase-producing Escherichia coli and Klebsiella pneumoniae isolates causing health care-associated infection in Thailand, where the CTX-M family is endemic” (2008).

≈ marks a conversion by molar mass, not a printed value. Some results are limits rather than exact numbers.

Assay type in all cases: functional
Test [1] has as its system Escherichia coli. Briefly: Antimicrobial activity against extended-spectrum beta lactamase producing Escherichia coli expressing beta-lactamase CTX-M-3, CTX-M-15 and CTX-M-55 gene by Etest.
Test [2] has as its system Klebsiella pneumoniae. Briefly: Antimicrobial activity against extended-spectrum beta lactamase producing Klebsiella pneumoniae expressing beta-lactamase CTX-M-3, CTX-M-15 and CTX-M-55 gene by Etest.
Test [3] concerns Klebsiella pneumoniae. Briefly: Antimicrobial activity against extended-spectrum beta lactamase producing Klebsiella pneumoniae expressing beta-lactamase CTX-M-14 and CTX-M-27 gene and other bla gene by Etest.
In test [4] the test system is Escherichia coli. Briefly: Antimicrobial activity against extended-spectrum beta lactamase producing Escherichia coli expressing beta-lactamase CTX-M-3, CTX-M-15 and CTX-M-55 and other bla gene by Etest.
Test [5] has as its system Escherichia coli. Briefly: Antimicrobial activity against extended-spectrum beta lactamase producing Escherichia coli expressing beta-lactamase CTX-M-14 and CTX-M-27 gene by Etest.
The subject of test [6] is Klebsiella pneumoniae. Briefly: Antimicrobial activity against extended-spectrum beta lactamase producing Klebsiella pneumoniae by Etest.
Test [7] has as its system Klebsiella pneumoniae. Briefly: Antimicrobial activity against extended-spectrum beta lactamase producing Klebsiella pneumoniae expressing beta-lactamase CTX-M-14 and CTX-M-27 gene by Etest.
Test [8] relates to Escherichia coli. Briefly: Antimicrobial activity against extended-spectrum beta lactamase producing Escherichia coli expressing beta-lactamase CTX-M-14 and CTX-M-27 and other bla gene by Etest.
The test system of test [9] is Klebsiella pneumoniae. Briefly: Antimicrobial activity against extended-spectrum beta lactamase producing Klebsiella pneumoniae expressing beta-lactamase CTX-M-3, CTX-M-15 and CTX-M-55 and other bla gene by Etest.
Test [10] has as its system Escherichia coli. Briefly: Antimicrobial activity against extended-spectrum beta lactamase producing Escherichia coli assessed as resistant isolates by Etest.
Test [11] concerns Klebsiella pneumoniae. Briefly: Antimicrobial activity against extended-spectrum beta lactamase producing Klebsiella pneumoniae expressing beta-lactamase CTX-M-3, CTX-M-15 and CTX-M-55 and other bla gene assessed as susceptible isolates by Etest.
The subject of test [12] is Klebsiella pneumoniae. Briefly: Antimicrobial activity against extended-spectrum beta lactamase producing Klebsiella pneumoniae assessed as resistant isolates by Etest.
The test system of test [13] is Escherichia coli. Briefly: Antimicrobial activity against extended-spectrum beta lactamase producing Escherichia coli expressing beta-lactamase CTX-M-14 and CTX-M-27 gene assessed as susceptible isolates by Etest. The note with it: pooled result: one value given for 2 cell lines, strains, targets or settings.
Test [14] concerns Escherichia coli. Briefly: Antimicrobial activity against extended-spectrum beta lactamase producing Escherichia coli expressing beta-lactamase CTX-M-3, CTX-M-15 and CTX-M-55 and other bla gene assessed as susceptible isolates by Etest.
Test [15] deals with Escherichia coli. Briefly: Antimicrobial activity against extended-spectrum beta lactamase producing Escherichia coli expressing beta-lactamase CTX-M-3, CTX-M-15 and CTX-M-55 gene assessed as susceptible isolates by Etest.
In test [16] the test system is Escherichia coli. Briefly: Antimicrobial activity against extended-spectrum beta lactamase producing Escherichia coli expressing beta-lactamase CTX-M-14 and CTX-M-27 gene and other bla gene assessed as susceptible isolates by Etest. The conditions noted are these: pooled result: one value given for 2 cell lines, strains, targets or settings.
The test system of test [17] is Klebsiella pneumoniae. Briefly: Antimicrobial activity against extended-spectrum beta lactamase producing Klebsiella pneumoniae expressing beta-lactamase CTX-M-3, CTX-M-15 and CTX-M-55 gene assessed as susceptible isolates by Etest.
The test system of test [18] is Escherichia coli. Briefly: Antimicrobial activity against extended-spectrum beta lactamase producing Escherichia coli by Etest.

As for `C[C@@H](O)[C@H]1C(=O)N2C(C(=O)O)=C(SCCNC=N)C[C@H]12` [IMIPENEM ANHYDROUS], the MIC90 in the test with Escherichia coli [1] was 0.5 µg/mL (≈ 1.67 µM); in the test on Klebsiella pneumoniae [2] it was 0.5 µg/mL (≈ 1.67 µM); against Klebsiella pneumoniae [3] it was 0.38 µg/mL (≈ 1.27 µM); in the test on Escherichia coli [4], 0.38 µg/mL (≈ 1.27 µM); against Escherichia coli [5], 0.5 µg/mL (≈ 1.67 µM); in the test with Klebsiella pneumoniae [6], 0.38 µg/mL (≈ 1.27 µM). The MIC90 with Klebsiella pneumoniae [7] stood at 0.5 µg/mL (≈ 1.67 µM); in the test on Escherichia coli [8] it was 0.38 µg/mL (≈ 1.27 µM); with Klebsiella pneumoniae [9] it was 0.38 µg/mL (≈ 1.27 µM). In addition, the MIC50 against Klebsiella pneumoniae [6] worked out at 0.25 µg/mL (≈ 0.835 µM).
As for `O=C(O)c1cn(C2CC2)c2cc(N3CCNCC3)c(F)cc2c1=O` [CIPROFLOXACIN], the Activity with Escherichia coli [10] is given as 78.1%; in the test with Klebsiella pneumoniae [11], 11.1%; with Klebsiella pneumoniae [12], 76.6%; with Escherichia coli [13] it was 25.7%; in the test with Escherichia coli [14], 11.1%; with Escherichia coli [15], 20.4%. Besides, the Activity turned out to be 8.3% in the test on Escherichia coli [16] and 20.4% in the test with Klebsiella pneumoniae [17].
Consider `CO/N=C(\C(=O)N[C@@H]1C(=O)N2C(C(=O)O)=C(COC(C)=O)CS[C@H]12)c1csc(N)n1` [CEFOTAXIME], for which the MIC90 in the test with Escherichia coli [1] is greater than 256 µg/mL; in the test on Klebsiella pneumoniae [2], greater than 256 µg/mL; in the test on Klebsiella pneumoniae [3], 256 µg/mL (≈ 562 µM); against Escherichia coli [4], greater than 256 µg/mL; against Escherichia coli [18], greater than 256 µg/mL; in the test with Escherichia coli [5], 128 µg/mL (≈ 281 µM). In addition, the MIC90 against Klebsiella pneumoniae [6] was greater than 256 µg/mL; against Klebsiella pneumoniae [7], 128 µg/mL (≈ 281 µM); against Escherichia coli [8], 256 µg/mL (≈ 562 µM); with Klebsiella pneumoniae [9] it was greater than 256 µg/mL. The MIC50 against Escherichia coli [18] stood at 256 µg/mL (≈ 562 µM); with Klebsiella pneumoniae [6], 128 µg/mL (≈ 281 µM).
`CO/N=C(\C(=O)N[C@@H]1C(=O)N2C(C(=O)O)=C(CSc3nc(=O)c(O)nn3C)CS[C@H]12)c1csc(N)n1` [CEFTRIAXONE]: the MIC90 against Escherichia coli [1], with Klebsiella pneumoniae [2], against Klebsiella pneumoniae [3], against Escherichia coli [4], with Escherichia coli [18] and in the test with Escherichia coli [5] was greater than 256 µg/mL in each case. In addition, the MIC90 in the test with Klebsiella pneumoniae [6], against Klebsiella pneumoniae [7], in the test on Escherichia coli [8] and in the test with Klebsiella pneumoniae [9] was greater than 256 µg/mL each time. Besides, the MIC50 with Escherichia coli [18] and against Klebsiella pneumoniae [6] was greater than 256 µg/mL each time.
On to GENTAMICIN, for which the Activity with Escherichia coli [10] worked out at 66.3%; with Klebsiella pneumoniae [11] it was 19%; with Klebsiella pneumoniae [12] it was 76.4%; with Escherichia coli [13], 33.3%; in the test with Escherichia coli [14], 19%; in the test with Escherichia coli [15] it was 24.1%. Further, the Activity is 30.3% in the test with Escherichia coli [16] and 24.1% in the test with Klebsiella pneumoniae [17].
`C[C@@H](O)[C@H]1C(=O)N2C(C(=O)O)=C(S[C@@H]3CN[C@H](C(=O)Nc4cccc(C(=O)O)c4)C3)[C@H](C)[C@H]12` [ERTAPENEM]: the MIC90 was determined as 0.38 µg/mL (≈ 0.799 µM) with Escherichia coli [1]; 0.38 µg/mL (≈ 0.799 µM) in the test with Klebsiella pneumoniae [2]; 0.25 µg/mL (≈ 0.526 µM) with Klebsiella pneumoniae [3]; 0.5 µg/mL (≈ 1.05 µM) in the test with Escherichia coli [4]; 0.38 µg/mL (≈ 0.799 µM) with Escherichia coli [18]; 0.19 µg/mL (≈ 0.4 µM) in the test on Escherichia coli [5]. The MIC90 against Klebsiella pneumoniae [6] amounted to 0.38 µg/mL (≈ 0.799 µM); against Klebsiella pneumoniae [7], 0.19 µg/mL (≈ 0.4 µM); against Escherichia coli [8], 0.25 µg/mL (≈ 0.526 µM); with Klebsiella pneumoniae [9] it was 0.5 µg/mL (≈ 1.05 µM). Also, the MIC50 in the test with Escherichia coli [18] and against Klebsiella pneumoniae [6] was 0.094 µg/mL (≈ 0.198 µM) in each case.
For `CC(C)(O/N=C(\C(=O)N[C@@H]1C(=O)N2C(C(=O)[O-])=C(C[n+]3ccccc3)CS[C@H]12)c1csc(N)n1)C(=O)O` [CEFTAZIDIME], the MIC90 against Escherichia coli [1] was 256 µg/mL (≈ 468 µM); in the test on Klebsiella pneumoniae [2], 256 µg/mL (≈ 468 µM); against Klebsiella pneumoniae [3] it was greater than 256 µg/mL; in the test on Escherichia coli [4], greater than 256 µg/mL; in the test on Escherichia coli [18], 256 µg/mL (≈ 468 µM); against Escherichia coli [5], 16 µg/mL (≈ 29.3 µM). The MIC90 against Klebsiella pneumoniae [6] is greater than 256 µg/mL; against Klebsiella pneumoniae [7] it was 16 µg/mL (≈ 29.3 µM); with Escherichia coli [8], greater than 256 µg/mL; in the test with Klebsiella pneumoniae [9], greater than 256 µg/mL. In addition, the MIC50 turned out to be 32 µg/mL (≈ 58.5 µM) against Escherichia coli [18] and 128 µg/mL (≈ 234 µM) in the test with Klebsiella pneumoniae [6].
In the case of `CN(C)[C@@H]1C(O)=C(C(N)=O)C(=O)[C@@]2(O)C(O)=C3C(=O)c4c(O)cccc4[C@@](C)(O)[C@H]3C[C@@H]12` [TETRACYCLINE], the Activity in the test with Escherichia coli [10] was 87.5%; in the test with Klebsiella pneumoniae [11] it was 4.9%; in the test with Klebsiella pneumoniae [12], 85.7%; in the test with Escherichia coli [13] it was 16.7%; in the test with Escherichia coli [14], 4.9%; with Escherichia coli [15] it was 4.8%. For the same compound, the Activity in the test with Escherichia coli [16] stood at 5.9%; in the test with Klebsiella pneumoniae [17], 4.8%.
Take `NCC[C@H](O)C(=O)N[C@@H]1C[C@H](N)[C@@H](O[C@H]2O[C@H](CN)[C@@H](O)[C@H](O)[C@H]2O)[C@H](O)[C@H]1O[C@H]1O[C@H](CO)[C@@H](O)[C@H](N)[C@H]1O` [AMIKACIN]: the Activity in the test with Escherichia coli [10] is recorded as 12.5%; in the test on Klebsiella pneumoniae [11] it was 81%; in the test with Klebsiella pneumoniae [12], 28.6%; with Escherichia coli [13], 83.3%; in the test on Escherichia coli [14], 81%; in the test with Escherichia coli [15], 81%. The Activity in the test on Escherichia coli [16] is on record as 78.9%; in the test on Klebsiella pneumoniae [17], 81%.
`C[C@@H](O)[C@H]1C(=O)N2C(C(=O)O)=C(S[C@@H]3CN[C@H](C(=O)N(C)C)C3)[C@H](C)[C@H]12` [MEROPENEM]: the MIC90 against Escherichia coli [1] was determined as 0.19 µg/mL (≈ 0.495 µM); in the test with Klebsiella pneumoniae [2], 0.19 µg/mL (≈ 0.495 µM); in the test on Klebsiella pneumoniae [3], 0.064 µg/mL (≈ 0.167 µM); in the test with Escherichia coli [4] it was 0.125 µg/mL (≈ 0.326 µM); in the test with Escherichia coli [18], 0.125 µg/mL (≈ 0.326 µM); against Escherichia coli [5], 0.094 µg/mL (≈ 0.245 µM). In addition, the MIC90 against Klebsiella pneumoniae [6] was determined as 0.125 µg/mL (≈ 0.326 µM); against Klebsiella pneumoniae [7], 0.094 µg/mL (≈ 0.245 µM); against Escherichia coli [8], 0.064 µg/mL (≈ 0.167 µM); with Klebsiella pneumoniae [9], 0.125 µg/mL (≈ 0.326 µM). Moreover, the MIC50 against Escherichia coli [18] and in the test on Klebsiella pneumoniae [6] was 0.047 µg/mL (≈ 0.123 µM) throughout.
